This is an account of results in patent publication US20250109121A1, “POTENT AND SELECTIVE SMARCA2 DEGRADING CHIMERIC MOLECULES AS CANCER THERAPEUTICS” (BOARD OF REGENTS, THE UNIVERSITY OF TEXAS SYSTEM, priority 2021, published 2025).

In test [1] the target is T1, SMARCA2 (Homo sapiens, UniProt P51531). In words: SMARCA2 degradation in cell lines, western blot. Type of test: cell-based. How it is done: Cell lines with wild-type SMARCA4 (H1975, H1792, H2122, and H441) were treated with DMSO or 0.001, 0.01, 0.1, 1, or 10 μm of ACBI1 (degrader of SMARCA2, SMARCA4 and polybromo-associated BAF complex PBRM1) or Compound 101 and expression levels of SMARCA2 (FIG. 2A) and SMARCA4 (FIG. 2B) were detected by western blot.
T1 sequence (P51531 whole entry): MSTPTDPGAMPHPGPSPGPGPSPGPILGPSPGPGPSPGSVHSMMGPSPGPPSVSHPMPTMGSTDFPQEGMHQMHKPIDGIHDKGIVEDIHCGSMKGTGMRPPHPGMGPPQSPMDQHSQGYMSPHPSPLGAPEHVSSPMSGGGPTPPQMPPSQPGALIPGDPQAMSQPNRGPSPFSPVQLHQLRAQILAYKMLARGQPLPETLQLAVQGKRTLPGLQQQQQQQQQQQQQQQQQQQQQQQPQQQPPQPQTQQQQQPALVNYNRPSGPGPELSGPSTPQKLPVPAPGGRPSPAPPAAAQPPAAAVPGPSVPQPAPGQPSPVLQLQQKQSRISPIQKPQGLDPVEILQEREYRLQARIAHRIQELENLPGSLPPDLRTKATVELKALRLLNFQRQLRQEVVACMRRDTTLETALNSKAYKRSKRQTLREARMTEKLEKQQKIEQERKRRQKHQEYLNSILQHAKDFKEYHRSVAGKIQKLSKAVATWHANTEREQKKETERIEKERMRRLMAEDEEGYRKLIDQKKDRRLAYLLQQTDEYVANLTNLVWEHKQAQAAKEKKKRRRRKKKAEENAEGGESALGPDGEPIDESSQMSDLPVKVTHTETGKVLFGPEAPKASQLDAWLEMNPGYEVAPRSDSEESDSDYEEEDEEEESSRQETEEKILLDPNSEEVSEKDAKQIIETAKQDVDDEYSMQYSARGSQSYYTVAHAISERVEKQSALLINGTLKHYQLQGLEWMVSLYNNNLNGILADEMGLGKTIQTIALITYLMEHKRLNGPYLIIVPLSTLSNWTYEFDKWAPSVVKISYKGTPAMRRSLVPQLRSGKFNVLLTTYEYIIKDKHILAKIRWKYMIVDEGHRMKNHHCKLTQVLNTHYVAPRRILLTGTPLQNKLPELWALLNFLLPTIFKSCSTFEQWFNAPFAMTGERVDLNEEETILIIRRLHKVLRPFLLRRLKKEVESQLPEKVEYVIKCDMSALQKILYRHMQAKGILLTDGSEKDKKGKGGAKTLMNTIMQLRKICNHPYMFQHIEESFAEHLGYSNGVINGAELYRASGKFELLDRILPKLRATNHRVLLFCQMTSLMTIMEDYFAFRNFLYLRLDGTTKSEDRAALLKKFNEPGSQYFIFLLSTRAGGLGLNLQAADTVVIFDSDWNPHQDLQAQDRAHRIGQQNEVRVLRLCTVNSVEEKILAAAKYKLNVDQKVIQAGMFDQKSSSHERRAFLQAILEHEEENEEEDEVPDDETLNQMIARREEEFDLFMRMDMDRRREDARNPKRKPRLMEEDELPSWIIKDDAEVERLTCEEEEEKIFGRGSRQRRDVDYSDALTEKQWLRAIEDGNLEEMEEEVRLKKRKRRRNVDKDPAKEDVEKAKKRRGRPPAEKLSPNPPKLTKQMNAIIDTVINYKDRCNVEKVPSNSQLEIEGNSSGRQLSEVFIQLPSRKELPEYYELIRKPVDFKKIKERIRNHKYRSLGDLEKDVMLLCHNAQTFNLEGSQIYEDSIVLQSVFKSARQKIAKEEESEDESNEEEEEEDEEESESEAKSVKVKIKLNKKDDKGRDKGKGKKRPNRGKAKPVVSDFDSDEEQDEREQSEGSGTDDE
Cell lines with wild-type SMARCA4 (H1792) and mutant SMARCA4 (H1299) were treated for 72 h or 96 h with DMSO or 0.001, 0.01, 0.1, 1, or 10 μm Compound 103 and analyzed by western blot for SMARCA2, SMARCA4, and PBRM1 expression (FIGS. 4A, 4B, and 4C).
Cell lines with wild-type SMARCA4 (H1792) and mutant SMARCA4 (H1299) were treated for 72 h or 96 h with DMSO or 0.001, 0.01, 0.1, 1, or 10 μm Compound 102 and analyzed by western blot for SMARCA2, SMARCA4, and PBRM1 expression (FIGS. 5A, 5B, and 5C).
Cell lines with wild-type SMARCA4 (H1975) were treated with DMSO or 0.001, 0.01, 0.1, 1, or 10 μm of Compounds 104, 105, 106, 107, or 108 and analyzed by western blot for SMARCA2, SMARCA4, and PBRM1 expression (FIGS. 6A and 6B).

The subject of the next test is mutant SMARCA4 cells. The experiment in a line: Colony assay / cell proliferation, mutant SMARCA4 cell lines as a group. Type of test: cell-based. As to the method: (§1) Cell lines with wild-type SMARCA4 (HCC44, H2122, H1792 and H1975) and cell lines with mutant SMARCA4 (H1693, HCC515, H322, and H1299) were seeded in appropriate dilutions to form colonies in about 1-3 weeks. Cells were treated with ACBI1 or Compound 101 at concentrations of 0.001, 0.01, 0.1, 1, and 10 μm. Colonies were fixed with glutaraldehyde (6% v/v), stained with crystal violet (0.5% w/v) and the percent area of colonies was determined (FIGS. 3A and 3B). In cell lines with wild-type SMARCA4, inhibition of colony growth was more pronounced after treatment with ACBI1 than Compound 101 (FIG. 3A).

Test [2] deals with T1, SMARCA2. In words: Immunohistochemistry of SMARCA2 in H1299 xenograft tumors. Also noted: from tissue; host or cells: H1299 xenograft tumour tissue from female NCR Nude mice. The conditions noted are these: NCR Nude mice, 200 mg/kg intraperitoneally once per day for four days. In kind it is in vivo. As to the method:
NCR Nude mice were injected with vehicle or SMARCA2 degrader Compound 101 (200 mg/kg) once per day for four consecutive days intraperitoneally. Tumor tissues were harvested 24 hours after the last dose and fixed in formalin for 24 hours, paraffin embedded, sectioned and stained according to standard procedures. Briefly, endogenous peroxidases were inactivated by 3% hydrogen peroxide. Non-specific signals were blocked using 3% BSA, 10% goat serum in 0.1% Triton X-100. After antigen retrieval in citrate buffer, slides were stained overnight at 4° C. using SMARCA2 antibodies (Cell Signaling, D9E8B1:2000). After overnight incubation, the slides were washed and incubated with secondary antibody (HRP-polymers, Biocare Medical) for 30 min at room temperature. The slides were washed three times and stained with DAB substrate (ThermoFisher Scientific). The slides were then counterstained with haematoxylin and mounted with mounting medium. The slides were imaged by Vectra microscope and the signal intensity and percentage of cells positive for SMARCA2 was quantified using Vectra 3.0.7 software.

In the next test the test system is HCC827. In words: Cell proliferation (colony assay) IC50. Type of test: cell-based. The note with it: Homo sapiens; HCC827, wild-type SMARCA4.
Another test has as its system H2023. The experiment in a line: Cell proliferation (colony assay) IC50. In kind it is cell-based. The conditions noted are these: NCI-H2023; H2023, mutant SMARCA4.
In the next test the test system is wild-type SMARCA4 cells. The experiment in a line: Colony assay / cell proliferation, wild-type SMARCA4 cell lines as a group. In kind it is cell-based. As to the method:
as §1

“Also recorded” adds a separate entry of the source. Some results are limits rather than exact numbers.

`Nc1nnc(-c2ccccc2O)cc1N1CCN(Cc2ccc(OCCOCCNc3cccc4c3C(=O)N(C3CCC(=O)NC3=O)C4=O)c(F)c2)CC1` (stereo not drawn) [Compound 101]: the DC50 (commonly the midpoint of the concentration-degradation curve) at SMARCA2 [1] (H441, wild-type SMARCA4 cell line) stood at 99 nM; at SMARCA2 [1] (H1792, wild-type SMARCA4 cell line), 94 nM; on SMARCA2 [1] (H1975, wild-type SMARCA4 cell line, concentration at which 50% of the target protein is degraded), 103 nM; on SMARCA2 [1] (H2122, wild-type SMARCA4 cell line), 292 nM. The “SMARCA2 degradation (western blot, in words)” value on SMARCA2 [1] (H1975, H1792, H2122, H441, 0.001-10 μm, increasing concentrations) was “degraded SMARCA2 and SMARCA4”. Moreover, the “selectivity in degrading SMARCA2 compared to SMARCA4, relative to ACBI1” value at SMARCA2 [1] (wild-type SMARCA4 cell lines H1975, H1792, H2122, H441) is on record as “greater than 100 times”. Further, the “colony growth / proliferation of mutant SMARCA4 cells (in words)” value with mutant SMARCA4 cells (H1693, HCC515, H322, H1299, 0.001-10 μm) is recorded as “selectively inhibited SMARCA4 mutant cells; also recorded: selectively inhibited cell proliferation in mutant SMARCA4 cell lines”. Further, the IC50 (as a rule, the concentration at which inhibition is half-maximal) in the test with mutant SMARCA4 cells (mutant SMARCA4 cells (Table 5), upper end printed as >10 M, read-out: IC50, lower end of span over cell lines) was at least 93 nM; in the test with HCC827, above 10 µM; with H2023 it was 483 nM; in the test with wild-type SMARCA4 cells (wild-type SMARCA4 cells (Table 4), read-out: IC50, span over cell lines) it was 0.97 to 10 µM. The inhibition (commonly the drop in the measured response relative to a control, in per cent) at 0.1 µM in the test with mutant SMARCA4 cells (read-out: inhibition at 100 nM in SMARCA4 mutant cells (see FIG. 3D)) is at most 50%; in the test on wild-type SMARCA4 cells (read-out: inhibition at 100 nM in wild-type SMARCA4 cells (see FIG. 3D)), below 10%. Also, the “SMARCA2 in tumor tissue by immunohistochemistry (in words)” value at SMARCA2 [2] is “significant reduction in SMARCA2”. Moreover, the “reduction in the percentage of SMARCA2 positive cells” value on SMARCA2 [2] (tumor harvested 24 hours after last dose, versus vehicle) is on record as “more than 50%”.
